Data from patent publication US4285939A, “Cephalosporin derivatives, and antibacterial drugs containing the derivatives” (Eisai Co., Ltd., priority 1979, dated 1981).
Where two headings read alike, the source gives them in different places.

Columns and labels:
[1] = tested on: Proteus morganii EP-14; experiment: Minimal inhibitory concentration, standard agar dilution method (Proteus morganii); format: cell-based; settings: Morganella morganii
Protocol: (§1) Minimal inhibitory concentration (MIC) was determined by the standard agar dilution method of the Japan Society of Chemotherapy.
(§2) The compounds described in Examples 1, 2 and 5 were dissolved in sterilized water; the compound described in Example 4 was dissolved in acetone-water (1:1); and the control compounds, cephaloglycin and cephalexin monohydrate, were dissolved in a 3% sodium hydrogen carbonate solution.
(§3) Serial two-fold dilutions were made from the above solutions.
(§4) One-ml aliquots of each dilution were mixed with 9 ml of Heart influsion agar in petri-dishes to make agar plates containing the compound at serially diluted concentrations. After agar hardened, plates were put in an incubator at 37° C. for 1.5-2 hours with the lids slightly open to evaporate acetone off the plates.
(§5) Test organisms were grown for 18 hours at 37° C. in Trypticase Soy broth and diluted in saline to approximately 10^6 colony forming units per ml. A loopful of each cell suspension was applied on the agar plate mentioned above and the plates were incubated for 18 hours at 37° C. before MIC was determined.
(§6) MIC values of the compounds described in Examples 1, 2 and 5 were determined as their sodium salts and the compound described in Example 4 was determined as a free carboxylic acid.

[2] = tested on: Staphylococcus aureus 209P; experiment: Minimal inhibitory concentration, standard agar dilution method (Staphylococcus aureus); format: cell-based
Protocol: as §1, §2, §3, §4, §5, §6

[3] = tested on: Klebsiella pneumoniae EK-6; experiment: Minimal inhibitory concentration, standard agar dilution method (Klebsiella pneumoniae); format: cell-based
Protocol: as §1, §2, §3, §4, §5, §6

[4] = tested on: Escherichia coli NIHJ; experiment: Minimal inhibitory concentration, standard agar dilution method (Escherichia coli); format: cell-based
Protocol: as §1, §2, §3, §4, §5, §6

[5] = tested on: Serratia marcescens ES-75; experiment: Minimal inhibitory concentration, standard agar dilution method (Serratia marcescens); format: cell-based
Protocol: as §1, §2, §3, §4, §5, §6

[6] = tested on: Pseudomonas aeruginosa EP-172; experiment: Minimal inhibitory concentration, standard agar dilution method (Pseudomonas aeruginosa); format: cell-based
Protocol: as §1, §2, §3, §4, §5, §6

[7] = acute toxicity test (mouse, oral); settings: in vivo
Source text: Moreover, it has been confirmed that the compounds of this invention show low toxicity in the toxicity test. For example, the acute toxicity values [LD50 (mouse, oral)] for the following compounds were over 5 g/kg: […]

[8] = EP14, Proteus morganii EP-14, agar dilution, 18 hours at 37° C., Examples 1, 2, 5 as sodium salts, Example 4 as free acid, read-out: MIC
[9] = Staphylococcus aureus 209P, agar dilution, 18 hours at 37° C., Examples 1, 2, 5 as sodium salts, Example 4 as free acid, read-out: MIC
[10] = EK6, Klebsiella pneumoniae EK-6, agar dilution, 18 hours at 37° C., Examples 1, 2, 5 as sodium salts, Example 4 as free acid, read-out: MIC
[11] = Escherichia coli NIHJ, agar dilution, 18 hours at 37° C., Examples 1, 2, 5 as sodium salts, Example 4 as free acid, read-out: MIC
[12] = ES75, Serratia marcescens ES-75, agar dilution, 18 hours at 37° C., Examples 1, 2, 5 as sodium salts, Example 4 as free acid, read-out: MIC
[13] = EP172, Pseudomonas aeruginosa EP-172, agar dilution, 18 hours at 37° C., Examples 1, 2, 5 as sodium salts, Example 4 as free acid, read-out: MIC

Structure (SMILES) | MIC ([1]; EP14, 18 h) | MIC ([2]; Staphylococcus aureus, 209P, 18 h) | MIC ([3]; Klebsiella pneumoniae, EK6, 18 h) | MIC ([4]; Escherichia coli, 18 h) | MIC ([5]; Serratia marcescens, ES75, 18 h) | MIC ([6]; Pseudomonas aeruginosa, EP172, 18 h) | MIC [1, 8] | MIC [2, 9] | MIC [3, 10] | MIC [4, 11] | MIC [5, 12] | MIC [6, 13] | LD50 [7]
CC1=C(C(=O)O)N2C(=O)[C@@H](NC(=O)[C@H](N)c3ccccc3)[C@H]2SC1 [Cephalexin mono-hydrate, cephalexin monohydrate, reference compound] | > 100 µg/mL | 1.56 µg/mL | 3.13 µg/mL | 6.25 µg/mL | > 100 µg/mL | > 100 µg/mL | – | – | – | – | – | – | –
CC(=O)OCC1=C(C(=O)O)N2C(=O)[C@@H](NC(=O)[C@H](N)c3ccccc3)[C@H]2SC1 [Cephaloglycin, cephaloglycin, reference compound] | – | – | – | – | – | – | 25 µg/mL | 0.8 µg/mL | 1.56 µg/mL | 3.13 µg/mL | > 100 µg/mL | > 100 µg/mL | –
CC(=O)OCC1=C(C(=O)O)N2C(=O)[C@@H](NC(=O)[C@H](NC(=O)c3coc4cc(OC(C)=O)c(OC(C)=O)cc4c3=O)c3ccccc3)[C@H]2SC1 [Example 1, 7β-[D-2-(6,7-Diacetoxychromone-3-carboxamido)-2-phenylacetamido]-3-acetoxymethyl-3-cephem-4-carboxylic acid] | – | – | – | – | – | – | 50 µg/mL | 3.13 µg/mL | ≤ 0.1 µg/mL | 1.56 µg/mL | 0.4 µg/mL | 0.8 µg/mL | –
CC(=O)OCC1=C(C(=O)O)N2C(=O)[C@@H](NC(=O)[C@H](NC(=O)c3coc4cc(O)c(O)cc4c3=O)c3ccccc3)[C@H]2SC1 [Example 2, 7β-[D-2-(6,7-Dihydroxychromone-3-carboxamido)-2-phenylacetamido]-3-acetoxymethyl-3cephem-4-carboxylic acid] | – | – | – | – | – | – | 12.5 µg/mL | 1.56 µg/mL | ≤ 0.1 µg/mL | 0.8 µg/mL | 0.2 µg/mL | 0.8 µg/mL | > 5000 mg/kg
CC(=O)OCC1=C(C(=O)O)N2C(=O)[C@@H](NC(=O)[C@H](NC(=O)c3coc4c(OC(C)=O)c(OC(C)=O)ccc4c3=O)c3ccccc3)[C@H]2SC1 [Example 4, 7β-[D-2-(7,8-Diacetoxychromone-3-carboxamido)-2-phenylacetamido]-3-acetoxymethyl-3-cephem-4-carboxylic acid] | – | – | – | – | – | – | 3.13 µg/mL | 1.56 µg/mL | ≤ 0.1 µg/mL | 0.8 µg/mL | 0.8 µg/mL | 1.56 µg/mL | –
CC(=O)OCC1=C(C(=O)O)N2C(=O)[C@@H](NC(=O)[C@H](NC(=O)c3coc4c(O)c(O)ccc4c3=O)c3ccccc3)[C@H]2SC1 [Example 5, 7β-[D-2-(7,8-Dihydroxychromone-3-carboxamido)-2-phenylacetamido]-3-acetoxymethyl-3-cephem-4-carboxylic acid] | – | – | – | – | – | – | 12.5 µg/mL | 1.56 µg/mL | 0.2 µg/mL | 3.13 µg/mL | 1.56 µg/mL | 1.56 µg/mL | –
